# Measurements taken from PMC11012124, “Synthesis of Novel Triazine-Based Chalcones and 8,9-dihydro-7H-pyrimido[4,5-b][1,4]diazepines as Potential Leads in the Search of Anticancer, Antibacterial and Antifungal Agents” (International Journal of Molecular Sciences, 2024).
# Experiments:
# 60 cancer cell lines = assay: NCI-60 one-dose screen (10 μM); format: cell-based; conditions: Homo sapiens; one dose of 10 μM, mean over 60 cancer cell lines; read-out: Mean Growth Percent (MGP)
# Text: Additionally, the mean of the growth percentages (MGP) of each compound against all the 60 cancer cell lines is also reported, which is used as one of the selection criteria to continue with tests at five concentration doses.
# [1] = Hemolytic activity, spectrophotometric; format: cell-based, human; conditions: human, human red blood cells (huRBC), 5% hematocrit, 200 μg/mL, 37 °C
# CCRF-CEM = assay: cells; conditions: Homo sapiens, 48 h; for CC50: read-out: LC50
# HL-60(TB) = assay: cells; conditions: Homo sapiens, HL-60, 48 h; for CC50: read-out: LC50
# K-562 = assay: cells; conditions: Homo sapiens, K562, 48 h; for GI50: K-562, 48 h; for CC50: read-out: LC50
# MOLT-4 = assay: cells; conditions: Homo sapiens, MOLT-4, 48 h; for CC50: read-out: LC50
# RPMI-8226 = assay: cells; conditions: Homo sapiens, RPMI-8226, 48 h; for CC50: read-out: LC50
# A549/ATCC = assay: cells; conditions: Homo sapiens, A549, 48 h; for CC50: read-out: LC50
# EKVX = assay: cells; conditions: Homo sapiens, 48 h; for CC50: read-out: LC50
# HOP-92 = assay: cells; conditions: Homo sapiens, HOP-92, 48 h; for CC50: read-out: LC50
# NCI-H226 = assay: cells; conditions: Homo sapiens, NCI-H226, 48 h; for CC50: read-out: LC50
# NCI-H23 = assay: cells; conditions: Homo sapiens, NCI-H23, 48 h; for CC50: read-out: LC50
# NCI-H460 = assay: cells; conditions: Homo sapiens, NCI-H460, 48 h; for CC50: read-out: LC50
# HCC-2998 = assay: cells; conditions: Homo sapiens, HCC 2998, 48 h; for CC50: read-out: LC50
# HCT-116 = assay: cells; conditions: Homo sapiens, HCT-116, 48 h; for CC50: read-out: LC50
# SW-620 = assay: cells; conditions: Homo sapiens, SW-620, 48 h; for CC50: read-out: LC50
# SF-539 = assay: cells; conditions: Homo sapiens, SF-539, 48 h; for CC50: read-out: LC50, SF-539, 48 h
# SNB-75 = assay: cells; conditions: Homo sapiens, SNB-75, 48 h; for CC50: read-out: LC50
# LOX IMVI = assay: cells; conditions: Homo sapiens, 48 h; for CC50: read-out: LC50, LOX IMVI, 48 h
# MALME-3M = assay: cells; conditions: Homo sapiens, 48 h; for CC50: read-out: LC50
# M14 = assay: cells; conditions: Homo sapiens, M14, 48 h; for CC50: read-out: LC50
# MDA-MB-435 = assay: cells; conditions: Homo sapiens, MDA-MB-435, 48 h; for CC50: read-out: LC50
# SK-MEL-28 = assay: cells; conditions: Homo sapiens, SK-MEL-28, 48 h; for CC50: read-out: LC50
# UACC-257 = assay: cells; conditions: Homo sapiens, UACC-257, 48 h; for CC50: read-out: LC50
# IGROV1 = assay: cells; conditions: Homo sapiens, IGROV-1, 48 h; for CC50: read-out: LC50
# OVCAR-5 = assay: cells; conditions: Homo sapiens, OVCAR-5, 48 h; for CC50: read-out: LC50
# OVCAR-8 = assay: cells; conditions: Homo sapiens, OVCAR-8, 48 h; for CC50: read-out: LC50
# SK-OV-3 = assay: cells; conditions: Homo sapiens, SK-OV-3, 48 h; for CC50: read-out: LC50
# A498 = assay: cells; conditions: Homo sapiens, A498, 48 h; for CC50: read-out: LC50
# ACHN = assay: cells; conditions: Homo sapiens, 48 h; for CC50: read-out: LC50
# RXF 393 = assay: cells; conditions: Homo sapiens, RXF 393, 48 h; for CC50: read-out: LC50
# SN12C = assay: cells; conditions: Homo sapiens, 48 h; for CC50: read-out: LC50
# TK-10 = assay: cells; conditions: Homo sapiens, TK-10, 48 h; for CC50: read-out: LC50
# PC-3 = assay: cells; conditions: Homo sapiens, PC-3, 48 h; for CC50: read-out: LC50
# MCF7 = assay: cells; conditions: Homo sapiens, MCF7, 48 h; for CC50: read-out: LC50
# MDA-MB-231/ATCC = assay: cells; conditions: Homo sapiens, MDA-MB-231, 48 h; for CC50: read-out: LC50
# HS 578T = assay: cells; conditions: Homo sapiens, 48 h; for CC50: read-out: LC50
# BT-549 = assay: cells; conditions: Homo sapiens, BT-549, 48 h; for CC50: read-out: LC50
smiles,measurement,setting,value
COc1cc(/C=C/C(=O)c2ccc(S(=O)(=O)NCCNc3nc(N(C)C)nc(N4CCOCC4)n3)cc2)cc(OC)c1OC [23d],activity at 10 µM,60 cancer cell lines,-32.7%
same,"hemolysis at 24 h, 200 µg/mL",[1],0.2%
same,GI50,CCRF-CEM,2.07 µM
same,CC50,CCRF-CEM,> 100 µM
same,GI50,HL-60(TB),1.97 µM
same,CC50,HL-60(TB),> 100 µM
same,GI50,K-562,1.46 µM
same,CC50,K-562,> 100 µM
same,GI50,MOLT-4,2.23 µM
same,CC50,MOLT-4,> 100 µM
same,GI50,RPMI-8226,1.39 µM
same,CC50,RPMI-8226,> 100 µM
same,GI50,A549/ATCC,3.55 µM
same,CC50,A549/ATCC,43.9 µM
same,GI50,EKVX,3.74 µM
same,CC50,EKVX,82.3 µM
same,GI50,HOP-92,7.27 µM
same,CC50,HOP-92,76 µM
same,GI50,NCI-H226,11.4 µM
same,CC50,NCI-H226,72.4 µM
same,GI50,NCI-H23,3.09 µM
same,CC50,NCI-H23,40.3 µM
same,GI50,NCI-H460,3.17 µM
same,CC50,NCI-H460,59 µM
same,GI50,HCC-2998,1.8 µM
same,CC50,HCC-2998,5.9 µM
same,GI50,HCT-116,1.56 µM
same,CC50,HCT-116,5.92 µM
same,GI50,SW-620,1.9 µM
same,CC50,SW-620,7.42 µM
same,GI50,SF-539,1.81 µM
same,CC50,SF-539,6.29 µM
same,GI50,SNB-75,1.56 µM
same,CC50,SNB-75,41.6 µM
same,GI50,LOX IMVI,1.64 µM
same,CC50,LOX IMVI,5.76 µM
same,GI50,MALME-3M,1.97 µM
same,CC50,MALME-3M,9.42 µM
same,GI50,M14,2.18 µM
same,CC50,M14,26.9 µM
same,GI50,MDA-MB-435,1.9 µM
same,CC50,MDA-MB-435,8.46 µM
same,GI50,SK-MEL-28,2.12 µM
same,CC50,SK-MEL-28,13 µM
same,GI50,UACC-257,5.86 µM
same,CC50,UACC-257,43 µM
same,GI50,IGROV1,2.6 µM
same,CC50,IGROV1,50.1 µM
same,GI50,OVCAR-5,2.83 µM
same,CC50,OVCAR-5,33.7 µM
same,GI50,OVCAR-8,2.3 µM
same,CC50,OVCAR-8,36.5 µM
same,GI50,SK-OV-3,14.3 µM
same,CC50,SK-OV-3,52.7 µM
same,GI50,A498,14.2 µM
same,CC50,A498,52.6 µM
same,GI50,ACHN,1.78 µM
same,CC50,ACHN,6.75 µM
same,GI50,RXF 393,1.22 µM
same,CC50,RXF 393,8.63 µM
same,GI50,SN12C,2.72 µM
same,CC50,SN12C,38.1 µM
same,GI50,TK-10,13.1 µM
same,CC50,TK-10,50.8 µM
same,GI50,PC-3,3.76 µM
same,CC50,PC-3,> 100 µM
same,GI50,MCF7,1.64 µM
same,CC50,MCF7,9.66 µM
same,GI50,MDA-MB-231/ATCC,2.9 µM
same,CC50,MDA-MB-231/ATCC,36.7 µM
same,GI50,HS 578T,2.29 µM
same,CC50,HS 578T,> 100 µM
same,GI50,BT-549,2.01 µM
same,CC50,BT-549,6.91 µM
CN(C)c1nc(NCCNS(=O)(=O)c2ccc(C3=Nc4c(N)nc(N)nc4NC(c4ccccc4)C3)cc2)nc(Nc2ccc(F)cc2)n1 (stereo not drawn) [31a],activity at 10 µM,60 cancer cell lines,40.4%
same,"hemolysis at 24 h, 200 µg/mL",[1],1%
same,GI50,CCRF-CEM,4.02 µM
same,CC50,CCRF-CEM,> 100 µM
same,GI50,HL-60(TB),4.24 µM
same,CC50,HL-60(TB),> 100 µM
same,GI50,K-562,4.33 µM
same,CC50,K-562,> 100 µM
same,GI50,MOLT-4,3.11 µM
same,CC50,MOLT-4,> 100 µM
same,GI50,RPMI-8226,3.32 µM
same,CC50,RPMI-8226,> 100 µM
same,GI50,A549/ATCC,> 100 µM
same,CC50,A549/ATCC,> 100 µM
same,GI50,EKVX,6.65 µM
same,CC50,EKVX,> 100 µM
same,GI50,HOP-92,2.18 µM
same,CC50,HOP-92,9.96 µM
same,GI50,NCI-H226,> 100 µM
same,CC50,NCI-H226,> 100 µM
same,GI50,NCI-H23,> 100 µM
same,CC50,NCI-H23,> 100 µM
same,GI50,NCI-H460,6.49 µM
same,CC50,NCI-H460,> 100 µM
same,GI50,HCC-2998,11.7 µM
same,CC50,HCC-2998,> 100 µM
same,GI50,HCT-116,7.37 µM
same,CC50,HCT-116,> 100 µM
same,GI50,SW-620,40.4 µM
same,CC50,SW-620,> 100 µM
same,GI50,SF-539,12 µM
same,CC50,SF-539,63.8 µM
same,GI50,SNB-75,3.58 µM
same,CC50,SNB-75,> 100 µM
same,GI50,LOX IMVI,9.96 µM
same,CC50,LOX IMVI,25.7 µM
same,GI50,MALME-3M,7.34 µM
same,CC50,MALME-3M,> 100 µM
same,GI50,M14,24.4 µM
same,CC50,M14,> 100 µM
same,GI50,MDA-MB-435,15 µM
same,CC50,MDA-MB-435,> 100 µM
same,GI50,SK-MEL-28,> 100 µM
same,CC50,SK-MEL-28,> 100 µM
same,GI50,UACC-257,87.2 µM
same,CC50,UACC-257,> 100 µM
same,GI50,IGROV1,5.76 µM
same,CC50,IGROV1,> 100 µM
same,GI50,OVCAR-5,> 100 µM
same,CC50,OVCAR-5,> 100 µM
same,GI50,OVCAR-8,61.4 µM
same,CC50,OVCAR-8,> 100 µM
same,GI50,SK-OV-3,> 100 µM
same,CC50,SK-OV-3,> 100 µM
same,CC50,A498,> 100 µM
same,GI50,ACHN,> 100 µM
same,CC50,ACHN,> 100 µM
same,GI50,RXF 393,2.55 µM
same,CC50,RXF 393,8.95 µM
same,GI50,SN12C,7.83 µM
same,CC50,SN12C,> 100 µM
same,GI50,TK-10,> 100 µM
same,CC50,TK-10,> 100 µM
same,GI50,PC-3,3.84 µM
same,CC50,PC-3,> 100 µM
same,GI50,MCF7,3.85 µM
same,CC50,MCF7,85.5 µM
same,GI50,MDA-MB-231/ATCC,6.16 µM
same,CC50,MDA-MB-231/ATCC,67.6 µM
same,GI50,HS 578T,6.43 µM
same,CC50,HS 578T,> 100 µM
same,GI50,BT-549,8.82 µM
same,CC50,BT-549,> 100 µM
